According to US9046767B2, “Photoacid generator, photoresist, coated substrate, and method of forming an electronic device” (ROHM AND HAAS ELECTRONIC MATERIALS LLC, priority 2013, dated 2015):

Assay: Solubility evaluation of photoacid generators in organic solvents
Type: physicochemical
Conditions: 2 weight percent, room temperature; for Solubility in 2-Heptanone: solvent 2-Heptanone; for Solubility in PGMEA: solvent PGMEA; for Solubility in 2-Hepanone/n-Butyl Propionate (1:1 w/w): solvent blend 1:1 w/w; for Solubility in n-Butyl Acetate: solvent n-Butyl Acetate
Experimental: The photoacid generators were evaluated for solubility in a selection of organic solvents. Solubility of each of the compounds PAG-2, PAG-A1, PAG-A2 were obtained for attempts to completely dissolve the PAG at 2 weight percent at room temperature in different organic solvents and solvent blends. The results for the solubility tests (i.e., where the PAG is observed to be completely soluble in the solvent, or is only partially soluble or insoluble based on the presence of insoluble material) are shown in Table 1, where “O” indicates solubility at 2 weight percent, and “X” indicates partial solubility or insolubility at 2 weight percent.

| Molecule | Solubility in 2-Heptanone | Solubility in PGMEA | Solubility in 2-Hepanone/n-Butyl Propionate (1:1 w/w) | Solubility in n-Butyl Acetate |
| --- | --- | --- | --- | --- |
| CC1(C)OCC(C2OC(C)(C)OC2COC(=O)COc2ccc([S+](c3ccccc3)c3ccccc3)cc2)O1.O=C(OCC12CC3CC(CC(O)(C3)C1)C2)C(F)(F)S(=O)(=O)[O-] (stereo not drawn) [PAG-A2, 4-(2-oxo-2-(2,2,2′,2′-tetramethyl-4,4′-bis(1,3-dioxolan)-5-yl-methoxyethoxy)phenyl)diphenylsulfonium 1,1-difluoro-2-(3-hydroxyadamantan-1-yl-methoxy)-2-oxoethanesulfonate] | ◯ | ◯ | ◯ | ◯ |
| 4-(2-oxo-2-(2,2,2′,2′-tetramethyl-4,4′-bis(1,3-dioxolan)-5-yl-methoxyethoxy)phenyl)diphenylsulfonium 1-adamantyl-3,3,4,4-tetrafluorobutane sulfonate [PAG-A1] | ◯ | ◯ | ◯ | ◯ |
| Triphenylsulfonium 1,1-difluoro-2-((-3-hydroxyadamantan-1-yl)methoxy)-2-oxoethanesulfonate [C. PAG 2, reference compound] | X (“X” indicates partial solubility or insolubility at 2 weight percent) | X (“X” indicates partial solubility or insolubility at 2 weight percent) | X (“X” indicates partial solubility or insolubility at 2 weight percent) | X (“X” indicates partial solubility or insolubility at 2 weight percent) |
